{
  "source": "patent US20240279711A1",
  "about": "“MARKER FOR DNA DAMAGE IN PROXIMITY OF TRANSCRIBED GENOMIC LOCI AND METHODS FOR IDENTIFYING AND/OR QUANTIFYING THESE DNA DAMAGES” (FONDAZIONE ISTITUTO ITALIANO DI TECNOLOGIA, priority 2021, published 2024)",
  "format_in_all_cases": "cell-based",
  "key": {"[1]": {"system": "mCherry-CDK12 recruitment at damaged DNA sites in U2OS cells", "test": "Laser micro-irradiation, time-lapse microscopy of mCherry-CDK12 recruitment to damaged DNA sites", "settings": "for localisation of CDK12 at laser-damaged DNA sites: 1 hour before laser microirradiation; for recruitment of mCherry-CDK12 at laser-damaged areas: 3 hours before laser micro-irradiation; for localisation of CDK12 at laser-damaged sites: 2 hours before laser microirradiation", "experimental": "FIGS. 6A and 6B show how the recruitment of CDK12 to DDR sites is transcription-dependent. U2OS cells, transfected with mCherry-CDK12 plasmid, were first treated with DRB (100 uM), Triptolide (1 uM) or DMSO (mock) for 3 hours and then micro-irradiated by laser. Selected regions within the nucleus were micro-irradiated with 10 iterations of a laser at 405 nm with 100% power. The cells were subjected to quantitative analysis using time-lapse microscopy.\nU2OS cells were transfected with the mCherry-CDK12 encoding plasmid and treated with THZ531 (100 nM) or DMSO for 24 hours. The cells were previously treated with BrdU for 24 hours to sensitise the DNA to breaks by laser. To generate localised DNA damage, selected regions within the nucleus were micro-irradiated with 10 iterations of a laser at 405 nm with 100% power. The cells were then subjected to time-lapse microscopic analysis. For each condition, at least 30 cells were considered. FIG. 9A reports representative images used for the analysis shown in the graph of FIG. 9B.\nU2OS cells were transfected with mCherry-CDK12 plasmid and pre-treated with KU-55933 (ATMi; 10 μM), VE-821 (ATRi; 10 µM) or DMSO (mock) for 2 hours prior to laser microirradiation. To generate localised DNA damage, selected regions within the nucleus were micro-irradiated with 10 iterations of a laser at 405 nm with 100% power. The cells were subjected to quantitative analysis by time-lapse microscopy. FIG. 10A: representative images used for the analysis shown in the graph in FIG. 10B.\nFIGS. 11A and 11B show how CDK12 recruitment to DDR sites depends on PARP1 activity. U2OS cells were transfected with mCherry-CDK12 plasmid and pre-treated with Olaparib (1 µM), Veliparib (10 μM) or DMSO (mock) for 1 hour before laser microirradiation. To generate localised DNA damage, selected regions within the nucleus were micro-irradiated with 10 iterations of a laser at 405 nm with 100% power. The cells were then subjected to quantitative analysis by time-lapse microscopy.\nU2OS cells were transfected with a vector encoding mCherry-CDK12. Cells were micro-irradiated with a laser beam to induce DNA breaks confined to appropriately selected nuclear areas.\nIn order to inhibit RNA-pol2, the cells were pre-treated with either (i) triptolide (a TFIIH inhibitor that blocks the start of transcriptional) or (ii) DRB (5,6-dichlorobenzimidazole riboside, a DSIF inhibitor that prevents transcriptional elongation).\nU2OS cells were transfected with a vector encoding for mCherry-CDK12. Cells were micro-irradiated with a laser beam to induce DNA breaks confined to selected nuclear areas. In order to inhibit CDK12, the cells were pre-treated with THZ531, a covalent inhibitor of CDK12.\nU2OS cells were transfected with a vector encoding for mCherry-CDK12. The cells were micro-irradiated with a laser beam to induce DNA breaks in selected nuclear areas. To inhibit the DDR response, the cells were pre-treated with an ATM inhibitor (KU-55933) or an ATR inhibitor (VE-821).\nU2OS cells, transfected with a vector encoding for mCherry-CDK12, were micro-irradiated with a laser beam to induce DNA breaks confined to selected nuclear areas. To inhibit PARP1, the cells were pre-treated with Olaparib and Veliparib."}, "[2]": {"system": "mCherry-CDK12 recruitment to programmed DSBs in U2OS-TRE-I-Sce1 cells", "test": "CDK12 recruitment to programmed Sce-1 DSB, co-localisation with γH2A.X", "settings": "U2OS-TRE-I-SceI cells, doxycycline, 3 hours", "experimental": "FIGS. 7A and 7B show how CDK12 recruitment at a DNA-damaged locus is transcriptionally dependent. U2OS-TRE-I-SceI cells were transfected with plasmid vectors encoding mCherry-CDK12, p-rtTA, YFP-MS2 or I-Sce1. The cells were treated with doxycycline, which is required for the induction of the rtTA transcription factor that activates the transcription of the MS2 reporter gene. RNA-pol2 activity was inhibited by DRB (100 uM) or TRIPTOLIDE (TPL, 1 uM) for 3 hours. The cells were fixed with 4% PFA for 15 minutes and immunostained for γH2A. X. The table in FIG. 7B reports the percentage of cells showing co-localisation between CDK12 and γH2A. X (mean of two experiments).\nU2OS-TRE-I-Sce-1 cells were transfected with plasmids encoding (i) YFP-MS2 (a chimeric gene produced by the MS2 CDNA fused with the YFP cDNA), (ii) mCherry-CDK12 (a chimeric fusion of mCherry and CDK12), (iii) rtTA (a doxycycline-activated transcription factor) and (iv) the restriction enzyme Sce-1. Transcription was activated by the addition of doxycycline and monitored by detecting subcellular positive nuclear foci for YFP signal. Sce-1-induced DSBs were visualised by immunofluorescence staining specific for the phosphorylated form of histone H2Ax (γH2A. X), a marker for DNA break detection and DNA damage response (DDR) signalling pathway activation. […]"}, "[3]": {"system": "mCherry-CDK12 recruitment at endogenous DDR sites in RPE-iCUT cells", "test": "CDK12 recruitment to CRISPR-Cas9 induced DSBs at endogenous loci", "settings": "DSBs 1 kb and 2 kb upstream of TSS of POLRIB, IFRD2, MCM2, DRB 100 uM, 3 hours before harvesting", "experimental": "RPE iCUT cells, stably expressing inducible CRISPER-Cas9, were transfected with mCherry-CDK12. Cas9 was activated by doxycycline and SHIELD-1 for 16 hours. […] 3 hours before harvesting, the cells were treated with DRB (100 uM). The bar graph reports the percentage of cells showing co-localisation of CDK12 and γH2A. X in the indicated genomic regions (mean of two independent experiments, 40 cells were considered for each region).\nFor the site-specific induction of a DSB at selected endogenous genomic loci, we used RPE-iCUT cells: immortalised retinal epithelial cells engineered for CRISPR-CAS9 expression and conditional activation. These cells were transfected with mCherry-CDK12 and a set of sgRNAs (Alt-R-gRNA) designed to induce DBS in three expressed genes (MCM2, IFRD2 and POLRIB), in two regions upstream of their site of transcriptional onset (TSS), or designed to induce DSB in two genomic regions distal to transcribed loci. The induction of DSBs by CRISPR-Cas9 was assessed by immunofluorescence of γH2A. X, while the recruitment of CDK12 to DNA-damaged sites was assessed by microscopy analysis of mCherry signals. […] As a control, DSBs induced in regions distal to transcribed loci show low levels of CDK12 recruitment (close to the background signal), which are not altered by RNA-pol2 inhibitors (FIG. 8)."}, "[4]": {"system": "MS2 reporter transcription in U2OS-TRE-I-Sce1 cells", "test": "MS2 reporter gene transcription at damaged locus (YFP-MS2 / pCherry-tTA-ER co-localisation)", "settings": "+SceI, OHT, THZ531 for 24 h", "excerpt": "The fixed cells were processed to detect the γH2A. X signal by immunofluorescence. […] U2OS-TRE-I-Sce1 cells were transfected with plasmids encoding (i) YFP-MS2 (a chimeric gene produced from MS2 cDNA fused with YFP cDNA), (ii) mCherry-tTA-ER and (iii) the restriction enzyme Sce-1. Transcription was activated by addition of OHT and monitored by detecting positive nuclear foci for YFP signal. Sce1-induced DSBs were visualised by immunofluorescence staining of the phosphorylated form of the histone H2Ax (γH2A. X), a marker for DNA break detection and DNA damage response (DDR) signalling pathway activation."}},
  "data": [
    {"compound": "C[C@]1(c2nc3c(C(N)=O)cccc3[nH]2)CCCN1", "note": "[Veliparib]", "values": [
      {"measurement": "localisation of CDK12 at laser-damaged DNA sites", "setting": "[1]; Veliparib 10 μM", "result": "inhibited the localisation of CDK12 at damaged DNA sites"}
    ]},
    {"compound": "OC[C@H]1O[C@@H](n2cnc3cc(Cl)c(Cl)cc32)[C@H](O)[C@@H]1O", "note": "[DRB, 5,6-dichlorobenzimidazole riboside]", "values": [
      {"measurement": "recruitment of mCherry-CDK12 at Sce-1 damaged locus", "setting": "[2]; DRB 100 uM", "result": "prevents the recruitment of mCherry-CDK12 at damaged areas"},
      {"measurement": "recruitment of mCherry-CDK12 at laser-damaged areas", "setting": "[1]; DRB 100 uM", "result": "prevents the recruitment of mCherry-CDK12 at damaged areas"},
      {"measurement": "CDK12 recruitment to DDR foci proximal to promoters", "setting": "[3]", "result": "reduced its recruitment to damaged foci"}
    ]},
    {"compound": "CC(C)[C@]12O[C@H]1[C@@H]1O[C@]13[C@]1(O[C@H]1C[C@H]1C4=C(CC[C@@]13C)C(=O)OC4)[C@@H]2O", "note": "[triptolide]", "values": [
      {"measurement": "recruitment of mCherry-CDK12 at Sce-1 damaged locus", "setting": "[2]; TRIPTOLIDE 1 uM", "result": "prevents the recruitment of mCherry-CDK12 at damaged areas"},
      {"measurement": "recruitment of mCherry-CDK12 at laser-damaged areas", "setting": "[1]; Triptolide 1 uM", "result": "prevents the recruitment of mCherry-CDK12 at damaged areas"}
    ]},
    {"compound": "O=c1cc(-c2cccc3c2Sc2ccccc2S3)oc(N2CCOCC2)c1", "note": "[KU-55933]", "values": [
      {"measurement": "localisation of CDK12 at laser-damaged sites", "setting": "[1]; KU-55933 (ATMi) 10 μM", "result": "Neither of the two inhibitor affected the localisation of CDK12 at the damaged sites"}
    ]},
    {"compound": "CS(=O)(=O)c1ccc(-c2cnc(N)c(C(=O)Nc3ccccc3)n2)cc1", "note": "[VE-821]", "values": [
      {"measurement": "localisation of CDK12 at laser-damaged sites", "setting": "[1]; VE-821 (ATRi) 10 µM", "result": "Neither of the two inhibitor affected the localisation of CDK12 at the damaged sites"}
    ]},
    {"compound": "CN(C)C/C=C/C(=O)Nc1ccc(C(=O)N2CCC[C@@H](Nc3ncc(Cl)c(-c4c[nH]c5ccccc45)n3)C2)cc1", "note": "[THZ531]", "values": [
      {"measurement": "recruitment of CDK12 at DDR foci (laser)", "setting": "[1]; THZ531 100 nM, 24 hours, BrdU pre-sensitised", "result": "did not affect the recruitment of CDK12 at DDR foci"},
      {"measurement": "MS2 reporter expression at damaged locus", "setting": "[4]", "result": "reactivated MS2 reporter expression"}
    ]},
    {"compound": "O=C(c1cc(Cc2n[nH]c(=O)c3ccccc23)ccc1F)N1CCN(C(=O)C2CC2)CC1", "note": "[Olaparib]", "values": [
      {"measurement": "localisation of CDK12 at laser-damaged DNA sites", "setting": "[1]; Olaparib 1 µM", "result": "inhibited the localisation of CDK12 at damaged DNA sites"}
    ]}
  ]
}
